{
  "source": "paper PMC5514153",
  "about": "“Targeting PTPRZ inhibits stem cell-like properties and tumorigenicity in glioblastoma cells” (Scientific Reports, 2017)",
  "key": {"[1]": {"test_system": "oligodendrocyte precursor OL1 cells", "experiment": "OL1 oligodendrocyte differentiation assay", "assay_type": "cell-based, mouse", "conditions": "10 days in differentiation media", "method": "Figure 6 Effects of NAZ2329 treatment on oligodendrocyte differentiation. Mouse oligodendrocyte-lineage OL1 cells were cultured in differentiation media containing the indicated concentrations of NAZ2329. After 10 days, cells were fixed with formalin and stained with anti-NG2 proteoglycan (oligodendrocyte precursor cells, red) and anti-MBP (oligodendrocyte, green) antibodies, in conjunction with the DAPI-labeling of nuclei (blue). Scale bars, 100 µm.\nThe preparation of mouse oligodendrocyte-lineage OL1 cells was described previously. […] On the 10th day of the culture, differentiation from oligodendrocyte precursor cells to oligodendrocytes was assessed was described previously[14]–[16]. Briefly, cells were fixed and stained with anti-NG2 (a specific marker for oligodendrocyte precursor cells) and anti-MBP (a marker for matured oligodendrocytes), and the observed with a standard fluorescence microscope (Biozero BZ8000, Keyence). Differentiation from oligodendrocyte precursor cells to oligodendrocytes was expressed as the ratio of MBP-positive cells to NG2-positive cells."}, "[2]": {"target": "T1, human PTPRZ1 (whole intracellular region, D1+D2) (Homo sapiens, UniProt P23471)", "T1 construct": "Recombinant proteins corresponding to the entire intracellular regions (ICRs) of PTPRZ1, PTPRA, and PTPRM; made in house; host or cells: baculovirus-silkworm expression system", "T1 sequence (P23471 1663-2315 limits assumed)": "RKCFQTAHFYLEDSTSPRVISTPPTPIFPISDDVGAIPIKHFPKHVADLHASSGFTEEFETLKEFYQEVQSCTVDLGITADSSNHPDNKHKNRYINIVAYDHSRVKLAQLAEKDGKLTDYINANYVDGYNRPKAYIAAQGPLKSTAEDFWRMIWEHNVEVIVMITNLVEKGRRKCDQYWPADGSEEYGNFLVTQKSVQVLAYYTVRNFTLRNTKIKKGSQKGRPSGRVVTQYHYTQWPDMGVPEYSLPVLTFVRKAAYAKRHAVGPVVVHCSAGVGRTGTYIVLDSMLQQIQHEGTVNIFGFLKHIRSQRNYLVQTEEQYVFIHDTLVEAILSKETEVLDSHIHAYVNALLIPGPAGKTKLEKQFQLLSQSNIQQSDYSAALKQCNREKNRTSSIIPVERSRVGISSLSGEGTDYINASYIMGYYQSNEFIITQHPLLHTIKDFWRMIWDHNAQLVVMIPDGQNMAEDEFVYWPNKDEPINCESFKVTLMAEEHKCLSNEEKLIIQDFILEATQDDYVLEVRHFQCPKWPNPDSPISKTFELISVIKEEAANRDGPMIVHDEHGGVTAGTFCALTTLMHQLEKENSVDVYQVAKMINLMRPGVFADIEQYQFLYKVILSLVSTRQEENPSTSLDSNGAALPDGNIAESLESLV", "experiment": "In vitro PTPase assay (DiFMUP), PTPRZ1 whole intracellular region", "assay_type": "biochemical", "method": "Figure 4 NAZ2329, an allosteric inhibitor of R5 RPTP subfamily members. (A) Structure of NAZ2329. (B) Effect of preincubation of NAZ2329 on its inhibitory activity against PTPRZ. Recombinant human PTPRZ1 enzyme (the whole intracellular region) was premixed with NAZ2329 for the indicated times and followed by addition of a fluorogenic DiFMUP (non-specific PTP substrate, 6,8-difluoro-4-methylumbiliferyl phosphate) to measure PTP inhibitory activity. (C) Time dependence. The PTPRZ1 enzyme was added to the inhibitor–substrate mixture, and the inhibitory activity was determined at each time point relative to the vehicle control. (D) Reversibility of inhibition. PTPRZ1 enzymes were preincubated with NAZ2329 at the indicated concentrations for 30 min. The mixture was then 20-fold diluted, and recovered PTP activity was expressed as the relative activity compared with the vehicle-treated enzyme. (E) Lineweaver-Burk plot analysis. PTPRZ1 enzymes were preincubated with NAZ2329 for 60 min, and the PTP activity was measured using DiFMUP. (F) Concentration-inhibition curves of NAZ2329 for representative PTP members, including human PTPRZ and PTPRG (another R5 RPTP subfamily member), human PTPRS (R2A subfamily), human PTPRM (R2B subfamily), mouse PTPRB (R3 subfamily), human PTPRA (R4 subfamily), human PTPN1 (non-transmembrane PTP, NT1 subfamily), and human PTPN6 (NT2 subfamily), were generated. Assays were performed using DiFMUP. IC50 values obtained are shown in the inset. Data represent the averages of two or three separate experiments. TEXT PRINTED IN THE PICTURE: (F) NAZ2329: IC50 (μM): hPTPRZ1 7.5; IC50 (μM): hPTPRG 4.8; IC50 (μM): hPTPRA 35.7; IC50 (μM): hPTPRM 56.7; IC50 (μM): hPTPRS 23.7; IC50 (μM): mPTPRB 35.4; IC50 (μM): hPTPN6 15.2; IC50 (μM): hPTPN1 14.5\nRecombinant proteins corresponding to the entire intracellular regions (ICRs) of PTPRZ1, PTPRA, and PTPRM were expressed using a baculovirus-silkworm expression system, and purified as described. The ICRs of PTPRG, PTPRS, and PTPRB and the catalytic domains of PTPN1 and PTPN6 were expressed as glutathione-S-transferase (GST) fusion proteins from each pGEX plasmid in Escherichia coli strain BL21 (ref. [6]). GST fusion proteins were purified by glutathione affinity chromatography as described. Chondroitinase ABC (chABC) was purchased from Sigma-Aldrich (catalog #C3667). Anti-PTPRZ-S, rabbit polyclonal antibodies against the extracellular region of PTPRZ was described previously (ref. [44]). The following are the specificities and sources of the commercially available antibodies used in the present study: Anti-RPTPβ (a monoclonal antibody against the intracellular domain of PTPRZ1 receptors, #610179, BD Biosciences), anti-SOX2 (#ab97959, Abcam), anti-POU3F2 (#12137, Cell Signaling), anti-OLIG2 (#AB9610, Millipore), anti-SALL2 (#12679–1-AP, Proteintech Group), anti-GAPDH (#ab9482, Abcam) anti-phosphotyrosine (PY20; #ab16389, Abcam), and anti-pY118-paxillin (#2541, Cell Signaling), mouse anti-paxillin antibody (#610569, BD Bioscience), anti-MBP (#sc-13914, Santa Cruz Biotechnology), and anti-NG2 proteoglycan (#AB5320, Millipore). […]"}, "[3]": {"target": "T2, mPTPRB (Mus musculus, UniProt B2RU80)", "T2 construct": "The ICRs of PTPRG, PTPRS, and PTPRB and the catalytic domains of PTPN1 and PTPN6; GST (N); made in house; host or cells: Escherichia coli BL21", "T2 sequence (B2RU80 1644-1997 limits assumed)": "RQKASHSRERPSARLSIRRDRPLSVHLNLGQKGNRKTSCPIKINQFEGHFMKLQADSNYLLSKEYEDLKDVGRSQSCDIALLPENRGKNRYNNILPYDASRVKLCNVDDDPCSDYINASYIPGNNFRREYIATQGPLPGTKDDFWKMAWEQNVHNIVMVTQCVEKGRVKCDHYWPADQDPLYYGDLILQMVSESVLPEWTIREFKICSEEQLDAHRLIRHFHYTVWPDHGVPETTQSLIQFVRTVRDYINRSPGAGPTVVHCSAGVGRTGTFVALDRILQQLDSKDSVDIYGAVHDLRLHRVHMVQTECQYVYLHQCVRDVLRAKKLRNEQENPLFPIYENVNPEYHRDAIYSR", "experiment": "In vitro PTPase assay (DiFMUP), PTPRB", "assay_type": "biochemical", "conditions": "60-min preincubation", "method": "Figure 4 NAZ2329, an allosteric inhibitor of R5 RPTP subfamily members. (A) Structure of NAZ2329. (B) Effect of preincubation of NAZ2329 on its inhibitory activity against PTPRZ. Recombinant human PTPRZ1 enzyme (the whole intracellular region) was premixed with NAZ2329 for the indicated times and followed by addition of a fluorogenic DiFMUP (non-specific PTP substrate, 6,8-difluoro-4-methylumbiliferyl phosphate) to measure PTP inhibitory activity. (C) Time dependence. The PTPRZ1 enzyme was added to the inhibitor–substrate mixture, and the inhibitory activity was determined at each time point relative to the vehicle control. (D) Reversibility of inhibition. […] The mixture was then 20-fold diluted, and recovered PTP activity was expressed as the relative activity compared with the vehicle-treated enzyme. […] PTPRZ1 enzymes were preincubated with NAZ2329 for 60 min, and the PTP activity was measured using DiFMUP. […]\nRecombinant proteins corresponding to the entire intracellular regions (ICRs) of PTPRZ1, PTPRA, and PTPRM were expressed using a baculovirus-silkworm expression system, and purified as described. The ICRs of PTPRG, PTPRS, and PTPRB and the catalytic domains of PTPN1 and PTPN6 were expressed as glutathione-S-transferase (GST) fusion proteins from each pGEX plasmid in Escherichia coli strain BL21 (ref. [6]). […]"}},
  "note": "pIC50: −log10 of the molar value.",
  "data": [
    {"smiles": "CCOc1ccc(C(F)(F)F)cc1CSc1ccsc1C(=O)NS(=O)(=O)c1ccccc1", "note": "[NAZ2329]", "values": [
      {"measurement": "differentiation of OL1 cells to mature oligodendrocytes (MBP-positive/NG2-positive ratio)", "setting": "[1]", "result": "dose-dependently induced the differentiation"},
      {"measurement": "reversibility: enzymatic activity after 20-fold dilution of enzyme-compound mixture", "setting": "[2]; 30 min preincubation, then 20-fold dilution", "result": "fully recovered to the control level"},
      {"measurement": "type of inhibition (Lineweaver-Burk plot)", "setting": "[2]; 60 min preincubation, DiFMUP", "result": "noncompetitive-type inhibition"},
      {"measurement": "pIC50", "setting": "[2]; whole intracellular region, DiFMUP, 60-min preincubation, read-out: IC50 hPTPRZ1 (D1+D2)", "result": 5.12},
      {"measurement": "pIC50", "setting": "[3]", "result": 4.45}
    ]}
  ]
}
